Here are results for 5 compounds from the NIST ThermoML archive (doi:10.1016/j.jct.2006.03.018).

The conditions of data set [1]: 101 kPa, Liquid.
Data set [2] is described as follows: refractive index (Na D-line) (dimensionless). The conditions noted are these: 101.33 kPa, Liquid.

Structures are written as SMILES. Numbers after ± are expanded uncertainties.

With `CC(C)O` [propan-2-ol], the mass density was found to be 781.36 ± 3.8 kg/m3 in data set [1] (298.15 K), 777.09 ± 3.8 kg/m3 in data set [1] (303.15 K) and 772.75 ± 3.9 kg/m3 in data set [1] (308.15 K). Besides, the speed of sound in data set [1] (298.15 K) turned out to be 1141 ± 41 m/s. The viscosity in data set [1] (298.15 K) is reported as 2.042 ± 0.24 mPa·s; in data set [1] (303.15 K), 1.755 ± 0.21 mPa·s; in data set [1] (308.15 K), 1.521 ± 0.18 mPa·s. Also, the values for the refractive index in data set [2] (298.15 K), in data set [2] (303.15 K) and in data set [2] (308.15 K) were 1.3745 ± 0.005, 1.3721 ± 0.005 and 1.3702 ± 0.005, respectively.
As to `CCO` [ethanol], the mass density in data set [1] (298.15 K) was 785.91 ± 3.7 kg/m3; in data set [1] (303.15 K), 781.6 ± 3.7 kg/m3; in data set [1] (308.15 K), 777.26 ± 3.8 kg/m3. In data set [1] (298.15 K), the speed of sound is 1161 ± 82 m/s. The viscosity in data set [1] (298.15 K) came to 1.073 ± 0.14 mPa·s; in data set [1] (303.15 K), 0.971 ± 0.12 mPa·s; in data set [1] (308.15 K) it was 0.889 ± 0.12 mPa·s. Moreover, the results for the refractive index in data set [2] (298.15 K), in data set [2] (303.15 K) and in data set [2] (308.15 K) were 1.3591 ± 0.005, 1.3572 ± 0.005 and 1.355 ± 0.005, respectively.
In the case of `CCCO` [propan-1-ol], the mass density in data set [1] (298.15 K) stood at 799.96 ± 3.5 kg/m3; in data set [1] (303.15 K), 795.93 ± 3.6 kg/m3; in data set [1] (308.15 K), 791.86 ± 3.6 kg/m3. Further, the speed of sound in data set [1] (298.15 K) was found to be 1206 ± 42 m/s. The figures for the viscosity in data set [1] (298.15 K), in data set [1] (303.15 K) and in data set [1] (308.15 K) were 1.792 ± 0.21 mPa·s, 1.706 ± 0.2 mPa·s and 1.518 ± 0.18 mPa·s, respectively. Also, the refractive index in data set [2] (298.15 K) is 1.3826 ± 0.005; in data set [2] (303.15 K) it was 1.3808 ± 0.005; in data set [2] (308.15 K), 1.3782 ± 0.005.
Take `COc1ccccc1` [anisole]: the mass density in data set [1] (298.15 K) is 989.15 ± 1.6 kg/m3; in data set [1] (303.15 K), 984.45 ± 1.6 kg/m3; in data set [1] (308.15 K) it was 979.73 ± 1.7 kg/m3. In data set [1] (298.15 K), the speed of sound was 1412 ± 95 m/s. In addition, the viscosity is reported as 0.988 ± 0.13 mPa·s in data set [1] (298.15 K), 0.913 ± 0.12 mPa·s in data set [1] (303.15 K) and 0.854 ± 0.11 mPa·s in data set [1] (308.15 K). The refractive index was 1.5137 ± 0.005 in data set [2] (298.15 K), 1.5113 ± 0.005 in data set [2] (303.15 K) and 1.5088 ± 0.005 in data set [2] (308.15 K).
As for `CCCCCO` [pentan-1-ol], the mass density in data set [1] (298.15 K) is listed as 810.92 ± 3.5 kg/m3; in data set [1] (303.15 K), 807.23 ± 3.5 kg/m3; in data set [1] (308.15 K), 803.52 ± 3.6 kg/m3. The speed of sound in data set [1] (298.15 K) amounted to 1286 ± 44 m/s. Further, the viscosity in data set [1] (298.15 K) turned out to be 3.403 ± 0.39 mPa·s; in data set [1] (303.15 K), 2.959 ± 0.34 mPa·s; in data set [1] (308.15 K) it was 2.581 ± 0.3 mPa·s. The refractive index in data set [2] (298.15 K) is recorded as 1.4073 ± 0.005; in data set [2] (303.15 K), 1.405 ± 0.005; in data set [2] (308.15 K) it was 1.4032 ± 0.005.

As usually defined, the mass density is mass per unit of volume. The speed of sound is the propagation velocity of pressure waves in the medium. As usually defined, the viscosity is the resistance of a fluid to flow. What is called refractive index is the speed of light in vacuum divided by its phase velocity in the sample.
